Results on eight compounds are retold here after paper PMC6268609, “Synthesis and Evaluation of New β-Carboline-3-(4-benzylidene)-4H-oxazol-5-one Derivatives as Antitumor Agents” (Molecules, 2012).

Test [1] relates to ovarian (OVCAR-03). The following applies: previous work; cited from earlier work.
In test [2] the test system is prostate (PC-3). The conditions noted are these: previous work; cited from earlier work.
Test [3] concerns colon (HT-29). The test can be described thus: Cytotoxic assay (sulforhodamine B), colon. The following applies: Homo sapiens, 48 h. Type of test: cell-based. The procedure: (§1) The synthesized compounds were evaluated in vitro against six human cancer cell lines consisting of glioma (U251), melanoma (UACC-62), breast (MCF-7), prostate (PC-3), ovarian (OVCAR-03) and colon (HT-29). Cell lines were obtained from National Cancer Institute (Frederick, MD, USA). Normal cell line (VERO, renal, green monkey), from the Rio de Janeiro Cell Bank, was also used. Stock cultures were grown in medium containing 5 mL RPMI 1640 (GIBCO BRL) supplemented with 5% fetal bovine serum (FBS, GIBCO), at 37 °C with 5% CO2. Penicillin:streptomycin (1000 μg/L:1000 U/L, 1 mL/L) was added to the experimental cultures. Cells in 96-well plates (100 μL cells well^−1) were exposed to compounds 8–11 in DMSO (concentrations of 0.25, 2.5, 25, and 250 μg·mL^−1) at 37 °C, 5% of CO2 in air for 48 h. […] Afterwards cells were fixed with 50% trichloroacetic acid and cell proliferation determined by spectrophotometric quantification (540 nm) of cellular protein content by using sulforhodamine B assay and doxorubicin as the positive control. Three measurements were obtained: at time zero (To, at the beginning of incubation) and 48 h post-incubation for compound-free (C) and tested (T) cells. Cell proliferation was determined according to the equation 100 × [(T − T0)/C − T0], for T0 < T ≤ C, and 100 × [(T − T0)/T0], for T ≤ T0 and a concentration-response curve for each cell line was plotted using software ORIGIN 8.0® (OriginLab Corporation). Using the concentration–response curve for each cell line, the IC50 values (concentration that produces a 50% reduction in cellular growth when compared to untreated control cells) and IC100 values (concentration that promotes total growth inhibition) were determined through non-linear regression analysis using software ORIGIN 8.0® (OriginLab Corporation). Compounds with IC50 values < 100 μM were considered actives.

The test system of test [4] is glioma (U251). The test can be described thus: Cytotoxic assay (sulforhodamine B), glioma. Type of test: cell-based, human. The following applies: for IC50: Homo sapiens, U-251, 48 h, sulforhodamine B assay. On the procedure: as §1
The test system of test [5] is ovarian (OVCAR-03). Put plainly: Cytotoxic assay (sulforhodamine B), ovarian. Type of test: cell-based, human. The conditions noted are these: for IC50: Homo sapiens, 48 h, sulforhodamine B assay. The procedure:
as §1
(In general: Sulforhodamine B stains cellular protein and so reports cell mass.)

For test [6], the system named is Normal cell line (VERO, renal, green monkey). The test can be described thus: Cytotoxic assay (sulforhodamine B), normal cell line. Type of test: cell-based. The following applies: Chlorocebus sabaeus, 48 h. The procedure:
as §1

Test [7] deals with breast (MCF-7). The test can be described thus: Cytotoxic assay (sulforhodamine B), breast. Type of test: cell-based. The conditions noted are these: Homo sapiens, MCF7, 48 h. The procedure: as §1
Test [8] concerns prostate (PC-3). The test can be described thus: Cytotoxic assay (sulforhodamine B), prostate. In kind it is cell-based, human. The conditions noted are these: for IC50: Homo sapiens, 48 h, sulforhodamine B assay. On the procedure: as §1
Test [9] has as its system melanoma (UACC-62). Put plainly: Cytotoxic assay (sulforhodamine B), melanoma. In kind it is cell-based, human. The conditions noted are these: for IC50: Homo sapiens, UACC-62, 48 h, sulforhodamine B assay. On the procedure:
as §1

Read-outs that look alike come from different tables or passages of the source.

A word on the IC50: it is the concentration needed to halve the response being measured. On to `CN(C)c1ccc(-c2nc(-c3n[nH]c(=S)[nH]3)cc3c2[nH]c2ccccc23)cc1` [1-(4-N,N-dimethylaminophenyl)-3-(5-thioxo-1,2,4-triazol-3-yl)-β-carboline], for which the half-maximal inhibitory concentration (IC50) was 1.09 µM in [1] and 1.37 µM in test [2].
Turning to `COc1ccc(-c2nc(-c3nnc(SC)o3)cc3c2[nH]c2ccccc23)cc1` [1-(4-methoxyphenyl)-3-(2-methylthio-1,3,4-oxadiazol-5-yl) β-carboline], in test [1], the IC50 was 2.13 µM.
For `O=C1OC(c2cc3c([nH]c4ccccc43)c(-c3ccccc3)n2)=NC1=Cc1cccc([N+](=O)[O-])c1` [Compound 8, 2-(1-Phenyl-9H-β-carbolin-3-yl)-4-(3-nitrobenzylidene)-4H-oxazol-5-one], the IC50 in test [3] was > 100 µM; in [4] it was 62.4 µM; in test [5] it was 63.2 µM; in test [6] it was > 100 µM; in test [7] it was > 100 µM; in [8] it was > 100 µM. Moreover, the half-inhibitory concentration (IC50) in [9] was 7.52 µM.
`CC(=O)Oc1ccc(-c2nc(C3=NC(=Cc4cccc([N+](=O)[O-])c4)C(=O)O3)cc3c2[nH]c2ccccc23)cc1` [Compound 9, 2-[1-(4-Acetoxyphenyl)-9H-β-carbolin-3-yl]-4-(3-nitrobenzylidene)-4H-oxazol-5-one]: the IC50 in test [3] was > 100 µM; in test [4] it was 80.2 µM; in test [5], > 100 µM; in test [6], > 100 µM; in [7], > 100 µM; in test [8], > 100 µM. In [9], this compound yielded an IC50 of 8.76 µM.
For the compound `COc1ccc(-c2nc(C3=NC(=Cc4cccc([N+](=O)[O-])c4)C(=O)O3)cc3c2[nH]c2ccccc23)cc1` [Compound 10, 2-[1-(4-Methoxyphenyl)-9H-β-carbolin-3-yl]-4-(3-nitrobenzylidene)-4H-oxazol-5-one], the IC50 in test [3] was > 100 µM; in test [4] it was 0.35 µM; in test [5] it was 2.18 µM; in test [6], > 100 µM; in test [7], 47.6 µM; in [8] it was 5.28 µM. Half-maximal inhibition in test [9] (IC50) was put at 15.9 µM.
For the compound `COc1ccc(-c2nc(C3=NC(=Cc4ccccc4)C(=O)O3)cc3c2[nH]c2ccccc23)cc1` [Compound 11, 2-[1-(4-Methoxyphenyl)-9H-β-carbolin-3-yl]-4-benzylidene-4H-oxazol-5-one], the half-inhibitory concentration (IC50) turned out to be 67.9 µM in test [3]; 0.48 µM in [4]; 1.07 µM in [5]; 63.2 µM in test [6]; 23.4 µM in test [7]; 1.5 µM in test [8]. The half-inhibitory concentration (IC50) in test [9] is 10 µM. The “IC100 (concentration that promotes total growth inhibition)” value was determined as 15.50 µM in [4] (glioma (U251), cytostatic activity); 56.83 µM in test [5] (ovarian (OVCAR-03), cytostatic activity); 64.17 µM in test [8] (prostate (PC-3), cytostatic activity); 112.42 µM in [9] (melanoma (UACC-62), cytostatic activity).
As to `COc1cccc2c1C(=O)c1c(O)c3c(c(O)c1C2=O)C[C@@](O)(C(=O)CO)C[C@@H]3O[C@H]1C[C@H](N)[C@H](O)[C@H](C)O1` [Doxorubicin, reference compound], the half-inhibitory concentration (IC50) in test [3] turned out to be 0.18 µM; in [4], 0.03 µM; in test [5] it was 0.42 µM; in test [6], 0.5 µM; in test [7] it was 0.06 µM; in [8] it was 0.05 µM. The IC50 in test [9] came to 0.04 µM.
Consider `O=C(NN=Cc1ccccc1Cl)c1cc2c([nH]c3ccccc32)c(-c2ccc(O)cc2)n1` [N'-(2-chlorobenzylidene)-1-(4-hydroxyphenyl)-β-carboline-3-carbohydrazide], for which the IC50 is 1.65 µM in test [1] and 1.83 µM in [2].
